ChEMBL document CHEMBL4118072, “2-Substituted-thio-N-(4-substituted-thiazol/1H-imidazol-2-yl)acetamides as BACE1 inhibitors: Synthesis, biological evaluation and docking studies” (Eur J Med Chem, 2017)

What was measured:
[1] = target: T1, Beta-secretase 1 (Homo sapiens, UniProt P56817); assay: Inhibition of BACE1 (unknown origin) at 50 uM using Rh-EVNLDAEFK-Quencher as substrate after 60 mins by FRET assay relative to control
[2] = Cytotoxicity against HEK293 cells assessed as decrease in cell viability after 72 hrs by CellTiter Glo luminescent assay; type: cell-based; settings: human
[3] = in vitro; settings: PAMPA
Description: Permeability of the compound at 25 ug/ml after 18 hrs by PAMPA

[4] = target: T1, Beta-secretase 1; assay: Binding affinity to BACE1 (unknown origin) by SPR method
[5] = target: T1, Beta-secretase 1; assay: Inhibition of BACE1 (unknown origin) using Rh-EVNLDAEFK-Quencher as substrate after 60 mins by FRET assay
[6] = target: T1, Beta-secretase 1; assay: Inhibition of BACE1 (unknown origin) at 10 uM using Rh-EVNLDAEFK-Quencher as substrate after 60 mins by FRET assay relative to control
[7] = target: T1, Beta-secretase 1; assay: Inhibition of BACE1 (unknown origin) at 1 uM using Rh-EVNLDAEFK-Quencher as substrate after 60 mins by FRET assay

T1 sequence (P56817 whole entry): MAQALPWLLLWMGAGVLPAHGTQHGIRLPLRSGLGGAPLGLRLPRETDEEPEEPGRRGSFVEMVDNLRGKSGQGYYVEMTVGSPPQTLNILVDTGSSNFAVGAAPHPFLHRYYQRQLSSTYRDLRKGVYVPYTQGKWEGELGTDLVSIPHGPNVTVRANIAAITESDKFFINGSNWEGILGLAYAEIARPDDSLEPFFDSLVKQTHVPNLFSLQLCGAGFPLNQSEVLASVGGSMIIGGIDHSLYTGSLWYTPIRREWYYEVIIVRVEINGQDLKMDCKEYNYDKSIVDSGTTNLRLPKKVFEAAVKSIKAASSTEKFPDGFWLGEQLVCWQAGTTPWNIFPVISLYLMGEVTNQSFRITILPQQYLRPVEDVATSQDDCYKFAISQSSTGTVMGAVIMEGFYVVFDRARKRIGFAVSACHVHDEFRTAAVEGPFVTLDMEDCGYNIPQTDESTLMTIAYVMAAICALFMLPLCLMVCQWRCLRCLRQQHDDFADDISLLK

SMILES | inhibition [1] [%] | CC50 at 72 h [2] [µM] | Papp at 18 h, 25 ug/ml [3] [×10⁻⁶ cm/s] | Kd [4] [µM] | IC50 [5] [µM] | inhibition [6] [%] | inhibition [7] [%]
N#Cc1c(-c2cccc(C(F)(F)F)c2)nc(SCC(=O)Nc2nc(-c3cc(Cl)c(N)c(Cl)c3)cs2)[nH]c1=O | 86.1 | 47.7 | 0.88 | 1.33 | 13.4 | 13 | 
COc1cccc(-c2nc(SCC(=O)Nc3nc(-c4cc(Cl)c(N)c(Cl)c4)c[nH]3)[nH]c(=O)c2C#N)c1 |  | > 50 | 0.34 | 0.169 | 3.2 | 87.7 | 26.4
N#Cc1c(-c2cccc(OC(F)(F)F)c2)nc(SCC(=O)Nc2nc(-c3cc(Cl)c(N)c(Cl)c3)cs2)[nH]c1=O | 39.6 |  |  |  |  | 6.1 | 
CN[C@@H]1C[C@H]2O[C@@](C)([C@@H]1OC)n1c3ccccc3c3c4c(c5c6ccccc6n2c5c31)C(=O)NC4 [STAUROSPORINE] |  | 0.00354 |  |  |  |  | 
COc1cccc(-c2nc(SCC(=O)Nc3nc(-c4cc(Cl)c(N)c(Cl)c4)cs3)[nH]c(=O)c2C#N)c1 | 91.8 | > 50 | 0.11 | 0.861 | 7.7 | 58.9 | 
COc1cccc(-c2nc(SCC(=O)Nc3nc(-c4cccc(Br)c4)cs3)[nH]c(=O)c2C#N)c1 | 90.4 | > 50 | 0.94 | 1.74 | 17.5 | 14.3 | 
CCOc1cccc(-c2nc(SCC(=O)Nc3nc(-c4cc(Cl)c(NC(C)=O)c(Cl)c4)cs3)[nH]c(=O)c2C#N)c1 | 4.7 |  |  |  |  | 2.5 | 
Clc1cccc(Cl)c1N=C1NCCN1 [CLONIDINE] |  |  | 5.9 |  |  |  | 
COc1cccc(-c2nc(SCC(=O)Nc3nc(-c4cc(Cl)c(NC(C)=O)c(Cl)c4)cs3)[nH]c(=O)c2C#N)c1 | 1.4 |  |  |  |  | 0.3 | 
CCOc1cccc(-c2nc(SCC(=O)Nc3nc(-c4cc(Cl)c(N)c(Cl)c4)cs3)[nH]c(=O)c2C#N)c1 | 79.9 | > 50 | 0.07 |  | 13.5 | 24.5 | 
